# Reference: PubChem BioAssay (NCI)
#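 Cells were grown in 96-well plates and exposed to each compound for 48 hours at five concentrations; endpoints were interpolated linearly between bracketing concentrations, or set to the highest concentration if not reached. Abbreviation: GI50, concentration required for 50% inhibition of growth. Definition used: TGI = concentration required for complete inhibition of growth.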 *1 amine or outer side, *2 acyl side, *3 side chain or, on linkers, in order; H or OH if unused. Where a SMILES comes first, the peptide text is derived from it. Bridges are numbered along the chain shown (N, C = ends). Roman numbers before positions name the chains, in order. [ ]: non-standard residue; d: D form. Actinocin(9to1) = Cc1c2oc3c(C)ccc(C(=O)[*:1])c3nc-2c(C(=O)[*:2])c(N)c1=O; NMeV = CN[CH](C(=O)O)C(C)C; Sar = CNCC(=O)O
# Legend:
# Assay in all cases: NCI anticancer screen, dose series, 48 h
# K-562 leukemia = test system: K-562 leukemia
# HCC-2998 colon = test system: HCC-2998 colon
# DU-145 prostate = test system: DU-145 prostate
# MDA-MB-435 = test system: MDA-MB-435
# COLO 205 colon = test system: COLO 205 colon
# MDA-N = test system: MDA-N
# CCRF-CEM leukemia = test system: CCRF-CEM leukemia
# SF-295 CNS = test system: SF-295 CNS
# SR leukemia = test system: SR leukemia
# SNB-19 CNS = test system: SNB-19 CNS
# UACC-257 melanoma = test system: UACC-257 melanoma
# SK-MEL-28 melanoma = test system: SK-MEL-28 melanoma
# NCI-H460 lung = test system: NCI-H460 lung
# LOX IMVI melanoma = test system: LOX IMVI melanoma
# NCI-H23 lung = test system: NCI-H23 lung
# PC-3 prostate = test system: PC-3 prostate
# SW-620 colon = test system: SW-620 colon
# OVCAR-4 ovarian = test system: OVCAR-4 ovarian
# ACHN renal = test system: ACHN renal
# SN12C renal = test system: SN12C renal
# U251 CNS = test system: U251 CNS
# SF-268 CNS = test system: SF-268 CNS
# M14 melanoma = test system: M14 melanoma
# CAKI-1 renal = test system: CAKI-1 renal
# UACC-62 melanoma = test system: UACC-62 melanoma
# HCT-116 colon = test system: HCT-116 colon
# IGROV1 ovarian = test system: IGROV1 ovarian
# MOLT-4 leukemia = test system: MOLT-4 leukemia
# RXF 393 renal = test system: RXF 393 renal
# EKVX NSCLC = test system: EKVX NSCLC
# A498 renal = test system: A498 renal
# KM12 colon = test system: KM12 colon
# UO-31 renal = test system: UO-31 renal
# HS 578T breast = test system: HS 578T breast
# SK-MEL-5 melanoma = test system: SK-MEL-5 melanoma
# A549 NSCLC = test system: A549 NSCLC
# HCT-15 colon = test system: HCT-15 colon
# RPMI-8226 leukemia = test system: RPMI-8226 leukemia
# 786-0 renal = test system: 786-0 renal
# OVCAR-8 ovarian = test system: OVCAR-8 ovarian
# NCI-H522 lung = test system: NCI-H522 lung
# NCI/ADR-RES ovarian = test system: NCI/ADR-RES ovarian
# HOP-92 NSCLC = test system: HOP-92 NSCLC
# NCI-H226 lung = test system: NCI-H226 lung
# OVCAR-5 ovarian = test system: OVCAR-5 ovarian
# TK-10 renal = test system: TK-10 renal
# MCF7 breast = test system: MCF7 breast
# SK-MEL-2 melanoma = test system: SK-MEL-2 melanoma
# BT-549 breast = test system: BT-549 breast
# SNB-75 CNS = test system: SNB-75 CNS
# HL-60(TB) leukemia = test system: HL-60(TB) leukemia
# SF-539 CNS = test system: SF-539 CNS
# HOP-62 NSCLC = test system: HOP-62 NSCLC
# OVCAR-3 ovarian = test system: OVCAR-3 ovarian
# T-47D breast = test system: T-47D breast
# MALME-3M melanoma = test system: MALME-3M melanoma
# SK-OV-3 ovarian = test system: SK-OV-3 ovarian
# MDA-MB-231 breast = test system: MDA-MB-231 breast
# HT29 colon = test system: HT29 colon
compound,measurement,setting,value
O=c1c(Nc2ccccc2)cn(CCOc2ccc(Cl)cc2)c(=O)n1CCOc1ccc(Cl)cc1,TGI,K-562 leukemia,> 100000 nM
same,TGI,HCC-2998 colon,> 100000 nM
same,TGI,DU-145 prostate,> 100000 nM
same,TGI,MDA-MB-435,> 100000 nM
same,TGI,COLO 205 colon,> 100000 nM
same,TGI,MDA-N,> 100000 nM
same,TGI,CCRF-CEM leukemia,> 100000 nM
same,TGI,SF-295 CNS,> 100000 nM
same,TGI,SR leukemia,> 100000 nM
same,TGI,SNB-19 CNS,> 100000 nM
same,TGI,UACC-257 melanoma,> 100000 nM
same,TGI,SK-MEL-28 melanoma,> 100000 nM
same,TGI,NCI-H460 lung,> 100000 nM
same,TGI,LOX IMVI melanoma,> 100000 nM
same,TGI,NCI-H23 lung,> 100000 nM
same,TGI,PC-3 prostate,> 100000 nM
same,TGI,SW-620 colon,> 100000 nM
same,TGI,OVCAR-4 ovarian,> 100000 nM
same,TGI,ACHN renal,> 100000 nM
same,TGI,SN12C renal,> 100000 nM
same,TGI,U251 CNS,> 100000 nM
same,TGI,SF-268 CNS,> 100000 nM
same,TGI,M14 melanoma,> 100000 nM
same,TGI,CAKI-1 renal,> 100000 nM
same,TGI,UACC-62 melanoma,> 100000 nM
same,TGI,HCT-116 colon,> 100000 nM
same,TGI,IGROV1 ovarian,> 100000 nM
same,TGI,MOLT-4 leukemia,> 100000 nM
same,TGI,RXF 393 renal,> 100000 nM
same,TGI,EKVX NSCLC,> 100000 nM
same,TGI,A498 renal,> 100000 nM
same,TGI,KM12 colon,> 100000 nM
same,TGI,UO-31 renal,> 100000 nM
same,TGI,HS 578T breast,> 100000 nM
same,TGI,SK-MEL-5 melanoma,> 100000 nM
same,TGI,A549 NSCLC,> 100000 nM
same,TGI,HCT-15 colon,> 100000 nM
same,TGI,RPMI-8226 leukemia,> 100000 nM
same,TGI,786-0 renal,> 100000 nM
Cc1c2oc3c(C)ccc(C(=O)OC(C)C4NC(=O)C(C(C)C)N(C)C(=O)CN(C)C(=O)C5CCCN5C(=O)C(C(C)C)NC4=O)c3nc-2c(C(=O)OC(C)C2NC(=O)C(C(C)C)N(C)C(=O)CN(C)C(=O)C3CCCN3C(=O)C(C(C)C)NC2=O)c(N)c1=O (configuration not stated) (I: cyclo([Sar][NMeV]TVP) / II: cyclo([Sar][NMeV]TVP); linker I:3-II:3 via Actinocin(9to1); configuration not given here),GI50,K-562 leukemia,< 10 nM
same,TGI,K-562 leukemia,> 100000 nM
same,GI50,DU-145 prostate,< 10.7 nM
same,TGI,DU-145 prostate,> 30700 nM
same,GI50,OVCAR-8 ovarian,< 10 nM
same,GI50,MDA-MB-435,< 10 nM
same,TGI,MDA-MB-435,24.7 nM
same,GI50,COLO 205 colon,< 10 nM
same,TGI,COLO 205 colon,16.3 nM
same,GI50,CCRF-CEM leukemia,< 11.1 nM
same,TGI,CCRF-CEM leukemia,> 66300 nM
same,GI50,SF-295 CNS,< 10 nM
same,TGI,SF-295 CNS,1530 nM
same,GI50,SR leukemia,< 10 nM
same,TGI,SR leukemia,> 100000 nM
same,GI50,SNB-19 CNS,< 10 nM
same,TGI,SNB-19 CNS,> 55500 nM
same,GI50,UACC-257 melanoma,< 10 nM
same,GI50,SK-MEL-28 melanoma,< 10 nM
same,TGI,SK-MEL-28 melanoma,30.7 nM
same,GI50,NCI-H460 lung,< 10 nM
same,TGI,NCI-H460 lung,> 32700 nM
same,GI50,LOX IMVI melanoma,< 10 nM
same,TGI,LOX IMVI melanoma,> 35000 nM
same,GI50,NCI-H522 lung,< 10 nM
same,TGI,NCI-H522 lung,< 11.6 nM
same,GI50,NCI-H23 lung,< 10 nM
same,TGI,NCI-H23 lung,80.2 nM
same,GI50,PC-3 prostate,< 10 nM
same,TGI,PC-3 prostate,19700 nM
same,GI50,SW-620 colon,< 10 nM
same,TGI,SW-620 colon,17700 nM
same,GI50,NCI/ADR-RES ovarian,541 nM
same,TGI,NCI/ADR-RES ovarian,> 100000 nM
same,GI50,HOP-92 NSCLC,< 10 nM
same,TGI,HOP-92 NSCLC,98.9 nM
same,GI50,NCI-H226 lung,< 10 nM
same,TGI,NCI-H226 lung,33.5 nM
same,GI50,OVCAR-4 ovarian,14 nM
same,TGI,OVCAR-4 ovarian,2030 nM
same,GI50,ACHN renal,< 10 nM
same,TGI,ACHN renal,4390 nM
same,GI50,SN12C renal,< 10 nM
same,TGI,SN12C renal,> 100000 nM
same,GI50,U251 CNS,< 10 nM
same,GI50,OVCAR-5 ovarian,11.4 nM
same,TGI,OVCAR-5 ovarian,21600 nM
same,GI50,TK-10 renal,< 12.7 nM
same,TGI,TK-10 renal,894 nM
same,GI50,MCF7 breast,< 10 nM
same,TGI,MCF7 breast,> 100000 nM
same,GI50,SF-268 CNS,< 10 nM
same,TGI,SF-268 CNS,913 nM
same,GI50,M14 melanoma,11.7 nM
same,TGI,M14 melanoma,51.7 nM
same,GI50,CAKI-1 renal,59.6 nM
same,GI50,UACC-62 melanoma,< 10 nM
same,TGI,UACC-62 melanoma,12.5 nM
same,GI50,HCT-116 colon,< 10 nM
same,TGI,HCT-116 colon,> 100000 nM
same,GI50,IGROV1 ovarian,< 10 nM
same,TGI,IGROV1 ovarian,5900 nM
same,GI50,SK-MEL-2 melanoma,< 10 nM
same,TGI,SK-MEL-2 melanoma,< 15.2 nM
same,GI50,BT-549 breast,< 10 nM
same,TGI,BT-549 breast,36.3 nM
same,GI50,SNB-75 CNS,< 10.9 nM
same,TGI,SNB-75 CNS,39 nM
same,GI50,MOLT-4 leukemia,< 10 nM
same,GI50,RXF 393 renal,< 10 nM
same,TGI,RXF 393 renal,18.5 nM
same,GI50,EKVX NSCLC,22 nM
same,GI50,HL-60(TB) leukemia,< 16.5 nM
same,TGI,HL-60(TB) leukemia,212 nM
same,GI50,SF-539 CNS,< 10 nM
same,TGI,SF-539 CNS,65.6 nM
same,GI50,A498 renal,< 10.7 nM
same,TGI,A498 renal,29.4 nM
same,GI50,KM12 colon,< 10 nM
same,TGI,KM12 colon,793 nM
same,GI50,HOP-62 NSCLC,< 10 nM
same,TGI,HOP-62 NSCLC,88.3 nM
same,GI50,OVCAR-3 ovarian,< 10 nM
same,TGI,OVCAR-3 ovarian,32 nM
same,GI50,UO-31 renal,30.2 nM
same,TGI,UO-31 renal,206 nM
same,GI50,HS 578T breast,19.2 nM
same,GI50,SK-MEL-5 melanoma,< 10 nM
same,TGI,SK-MEL-5 melanoma,16.9 nM
same,GI50,T-47D breast,< 10 nM
same,TGI,T-47D breast,> 100000 nM
same,GI50,HCT-15 colon,39.6 nM
same,TGI,HCT-15 colon,> 100000 nM
same,GI50,MALME-3M melanoma,< 10 nM
same,TGI,MALME-3M melanoma,28.2 nM
same,GI50,SK-OV-3 ovarian,19.2 nM
same,TGI,SK-OV-3 ovarian,> 100000 nM
same,GI50,RPMI-8226 leukemia,< 10 nM
same,TGI,RPMI-8226 leukemia,58.2 nM
same,GI50,MDA-MB-231 breast,15.2 nM
same,GI50,786-0 renal,< 10 nM
same,TGI,786-0 renal,> 100000 nM
same,GI50,HT29 colon,< 10 nM
